Measured values from patent US20260250257A1, “ANTIBACTERIAL AND SYNERGISTIC ACTIVE COMPOUND AND USE THEREOF” (EAST CHINA UNIVERSITY OF SCIENCE AND TECHNOLOGY, priority 2023, published 2026).
≈ marks a conversion by molar mass, not a printed value.

Columns and labels:
Type in all cases: cell-based
[1] = test system: ATCC13883 strain (Klebsiella pneumoniae); test: Checkerboard antibacterial synergistic activity test with polymyxin E (FIC); parameters: key: FIC≤0.5 synergy; 0.5–1 additive; 1–2 indifferent; ≥2 antagonism; conditions: combined with polymyxin E
Summary of the method: (§1)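 Polymyxin E was diluted in MH broth to 16–0.015 μg/ml and the test compound to 256–4 μg/ml (two-fold series, pre-mixing concentrations), combined checkerboard-style in 96-well plates with bacterial suspension and blank controls, and incubated at 37° C. for 16 h. FIC ≤0.5 was scored synergistic, >0.5 to <1 additive, 1–2 indifferent, ≥2 antagonistic.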

[2] = test system: ATCC19606 strain (Acinetobacter baumannii); test: as above; parameters: key: FIC≤0.5 synergy; 0.5–1 additive; 1–2 indifferent; ≥2 antagonism; conditions: combined with polymyxin E
Summary of the method: as §1

[3] = test system: ATCC25922 strain (Escherichia coli); test: as above; parameters: key: FIC≤0.5 synergy; 0.5–1 additive; 1–2 indifferent; ≥2 antagonism; conditions: combined with polymyxin E
Summary of the method: as §1

[4] = test system: ATCC9027 strain (Pseudomonas aeruginosa); test: as above; parameters: key: FIC≤0.5 synergy; 0.5–1 additive; 1–2 indifferent; ≥2 antagonism; conditions: combined with polymyxin E
Summary of the method: as §1

[5] = test system: ATCC13883 strain (Klebsiella pneumoniae); test: Broth microdilution, antibacterial activity of the compound used alone; conditions: for MIC: read-out: Antibacterial activity of the compound of Formula I, ATCC13883
Description: (§2) The broth microdilution method was used to test the antibacterial effects of the compounds of the present invention against various Gram-negative bacterial strains when used alone.

[6] = test system: ATCC19606 strain (Acinetobacter baumannii); test: as above; conditions: for MIC: read-out: Antibacterial activity of the compound of Formula I, ATCC19606
Description: as §2

[7] = test system: ATCC25922 strain (Escherichia coli); test: as above; conditions: for MIC: read-out: Antibacterial activity of the compound of Formula I, ATCC25922
Description: as §2

[8] = test system: ATCC9027 strain (Pseudomonas aeruginosa); test: as above; conditions: for MIC: read-out: Antibacterial activity of the compound of Formula I, ATCC9027
Description: as §2

Row | MIC [5] [µg/mL] | MIC [6] [µg/mL] | MIC [7] [µg/mL] | MIC [8] [µg/mL] | SMILES | Synergistic activity (FIC value) ATCC13883 [1] | Synergistic activity (FIC value) ATCC19606 [2] | Synergistic activity (FIC value) ATCC25922 [3] | Synergistic activity (FIC value) ATCC9027 [4] | Antibacterial activity of the compound of Formula I, ATCC13883 [5] [µg/mL] | Antibacterial activity of the compound of Formula I, ATCC19606 [6] [µg/mL] | Antibacterial activity of the compound of Formula I, ATCC25922 [7] [µg/mL] | Antibacterial activity of the compound of Formula I, ATCC9027 [8] [µg/mL]
1 | – | – | – | – | CC(C)(C)c1cc(-c2csc(N=C(N)N)n2)cc(C(C)(C)C)c1 [Compound I-13] | 0.33 | 0.15 | 0.39 | 0.62 | 256 | 256 | 256 | 256
2 | – | – | – | – | CCc1oc(N=C2NCCCN2)nc1-c1cccc(C(C)C)c1 [Compound I-165] | 0.31 | 0.13 | 0.38 | 0.53 | 256 | 256 | 256 | 256
3 | – | – | – | – | COc1ccc(Oc2cccc(-c3c[nH]c(N=C(N)N)n3)c2)c(C)c1 [Compound I-93] | 0.16 | 0.03 | 0.18 | 0.28 | 256 | 256 | 256 | 256
4 | – | – | – | – | NC(N)=Nc1nc(-c2cc(Cl)cc3c2Cc2ccc(Cl)cc2-3)cs1 [Compound I-116] | 0.63 | 0.25 | 0.5 | 1.25 | 256 | 256 | 256 | 256
5 | – | – | – | – | Cc1sc(N=C2NCCCN2)nc1-c1cc(C(C)C)cc(C(C)C)c1 [Compound I-167] | 0.25 | 0.3 | 0.5 | 0.63 | 256 | 256 | 256 | 256
6 | – | – | – | – | CC(C)c1ccc(-c2c[nH]c(N=C3NCCCN3)n2)cc1 [Compound I-166] | 1.25 | 1.25 | 0.5 | 1.25 | 256 | 256 | 256 | 256
7 | – | – | – | – | NC(N)=Nc1nc(-c2c(I)cc(I)cc2I)cs1 [Compound I-54] | 0.33 | 0.15 | 0.39 | 0.62 | 256 | 256 | 256 | 256
8 | – | – | – | – | NC(N)=Nc1nc(-c2cccc(Oc3ccccc3I)c2)cs1 [Compound I-96] | 0.16 | 0.03 | 0.18 | 0.28 | 256 | 256 | 256 | 256
9 | 256 (≈ 825 µM) | 256 (≈ 825 µM) | 256 (≈ 825 µM) | 256 (≈ 825 µM) | NC(N)=Nc1nc(-c2cccc(Oc3ccccc3)c2)cs1 [Compound I-2] | 0.75 | 0.26 | 0.51 | 0.53 | – | – | – | –
10 | – | – | – | – | COc1ccc(Oc2cccc(-c3csc(N=C(N)N)n3)c2)c(OC)c1 [Compound I-98] | 0.09 | 0.31 | 0.14 | 0.06 | 256 | 256 | 256 | 256
11 | – | – | – | – | Cn1ccc2cccc(-c3c[se]c(N=C(N)N)n3)c21 [Compound I-72] | 0.31 | 0.25 | 0.56 | 0.5 | 256 | 256 | 256 | 256
12 | – | – | – | – | Cc1sc(N=C(N)N)nc1-c1cccc2ccoc12 [Compound I-70] | 1.25 | 0.26 | 1.25 | 1.25 | 256 | 256 | 256 | 256
13 | – | – | – | – | O=C(NC1CC1)c1ccc(-c2nccs2)c(-c2nc(N=C3NCCCN3)sc2Br)c1 [Compound I-141] | 1.25 | 0.51 | 1.25 | 0.52 | 256 | 256 | 256 | 256
14 | – | – | – | – | CNS(=O)(=O)c1cc(-c2c[se]c(N=C3NCCCN3)n2)ccc1C [Compound I-171] | 0.63 | 0.75 | 0.5 | 0.56 | 256 | 256 | 256 | 256
15 | – | – | – | – | Cc1oc(N=C(N)N)nc1-c1cccc(C#N)c1-c1cccs1 [Compound I-79] | 0.52 | 0.52 | 0.63 | 1.25 | 256 | 256 | 256 | 256
16 | – | – | – | – | CCc1sc(N=C2NCCCN2)nc1-c1cc(C)c(F)c(C)c1 [Compound I-172] | 0.52 | 0.52 | 0.63 | 1.25 | 128 | 256 | 128 | 64
17 | – | – | – | – | N#Cc1cc(Oc2ccccc2I)cc(-c2coc(N=C3NCCCN3)n2)c1 [Compound I-157] | 0.09 | 0.31 | 0.14 | 0.06 | 256 | 256 | 256 | 256
18 | 256 (≈ 659 µM) | 256 (≈ 659 µM) | 256 (≈ 659 µM) | 256 (≈ 659 µM) | CS(=O)(=O)c1ccc(Oc2cccc(-c3csc(N=C(N)N)n3)c2)cc1 [Compound I-106] | 1.25 | 1.25 | 0.53 | 1.25 | – | – | – | –
